IC50 data for three compounds are collected here from ChEMBL document CHEMBL1141829, “10'-Hydroxyusambarensine, a new antimalarial bisindole alkaloid from the roots of Strychnos usambarensis” (J Nat Prod, 1999).

≈ marks a conversion by molar mass, not a printed value.

Assay [1] has as its system Plasmodium falciparum. Description: Antiplasmodial activity after 36 hrs against chloroquine-sensitive Plasmodium falciparum FCA 20 in human erythrocytes by [3H]hypoxanthine uptake. It is filed as functional, organism-based.
The subject of assay [2] is Plasmodium falciparum. The experiment in a line: Antiplasmodial activity after 36 hrs against chloroquine-resistant Plasmodium falciparum W2 in human erythrocytes by [3H]hypoxanthine uptake. It counts as functional, organism-based.

With `C/C=C1/CN2CCc3c([nH]c4ccccc34)[C@@H]2C[C@@H]1Cc1nccc2c1[nH]c1ccc(O)cc12`, the IC50 was 0.113 µg/mL (≈ 0.252 µM) in assay [1] and 0.122 µg/mL (≈ 0.272 µM) in assay [2].

Take `C/C=C1\CN2CCc3c([nH]c4ccccc34)[C@@H]2C[C@@H]1Cc1nccc2c1[nH]c1ccc(O)cc12`: the IC50 in assay [1] amounted to 0.48 µg/mL (≈ 1.07 µM); in assay [2] it was 0.16 µg/mL (≈ 0.357 µM).

With `C/C=C1/CN2CCc3c([nH]c4ccccc34)[C@@H]2C[C@@H]1Cc1nccc2c1[nH]c1ccccc12` [USAMBARENSINE], the IC50 in assay [1] came to 0.655 µg/mL (≈ 1.51 µM); in assay [2], 0.265 µg/mL (≈ 0.613 µM).
